Measured values reported in patent US10273451B2, “Immortalization of cells including neuronal cells” (The Johns Hopkins University, priority 2005, dated 2019).

Tests used:
50B11 cells [1] = conditions: 24 hours
Experimental: Conditions for culturing the 50B11 cells and measuring the ATP levels were optimized for the 96-well plate format. Initially 500 cells/well were plated in 96-well plates for 24 hours and then differentiated with forskolin (50 μM) in culture medium with reduced serum (0.2%). […] Cellular ATP levels were measured using the ViaLight Plus kit (Cambrex, city, state) according to manufacturer's instructions. This luciferase-based assay allows measurement of ATP levels on a luminometer with minimal manipulation of the well contents.
Next, we tested whether we can evaluate the neurotoxicity of capsaicin in an assay suitable for 96-well plate format. Capsaicin causes axonal degeneration and death of nociceptive DRG sensory neurons [ref here]. In order to evaluate cell survival we used a luciferase-based assay to measure cellular ATP levels.

TRPV-1 = target: T1, TRPV-1 (Rattus norvegicus, UniProt O35433); test: Ca2+ microfluorimetry (fura-2 ratiometric imaging) of the capsaicin response; assay type: cell-based
T1 construct: endogenous in cells; host or cells: 50B11 immortalized rat DRG neuronal cell line, with and without forskolin differentiation
Experimental: Ca^2+ microfluorimetry and imaging in forskolin-differentiated 50HB cells were performed by ratiometric imaging of the Ca2+-sensitive fluorescent dye fura-2. Cells were grown on glass coverslips in 12-well dishes and calcium imaging was done with and without differentiation with 50-μM forskolin. Cell were loaded for 15 min at 37° C. with 2 M fura-2 acetoxymethyl ester (Molecular Probes, Carlsbad, Calif.) in Krebs-HEPES buffer (100 mM NaCl, 2.0 mM KCl, 1.0 mM CaCl2, 1.0 mM MgCl2, 1.0 mM NaH2PO4, 4.2 mM NaHCO3, 12.5 mM HEPES and 10.0 mM glucose), then washed for 3 times in buffer to remove remaining fura-2 ester. The coverslip with loaded cells was then mounted on an inverted epifluorescence microscope (Zeiss, Axiovert 200) and covered with 60 μl Krebs-HEPES buffer or buffer with capsaicin. In capsazepin pretreatment experiments, capsazepin was added Images were acquired every ˜3 seconds with an extended Hamamatsu Digital Camera C4742-95 (Hamamatsu Photonics, Barcelona, Spain) using a dual filter wheel (Sutter Instruments, Novato, Calif., USA) equipped with 340 and 380 nm, 10-nm-bandpass filters (Omega Optics, Madrid, Spain). Data was acquired using InCyt Im2 software (Intracellular Imaging, Inc.). Fluorescence changes are expressed as the ratio of fluorescence at 340 and 380 nm (F340/F380).

50B11 cells [2] = test: Axonal degeneration, total neurite length measurement; assay type: cell-based, rat; conditions: differentiated 50B11 cells treated 24 hours
50B11 cells [3] = test: Forskolin-induced differentiation and neurite extension of the immortalized DRG neuronal line; assay type: cell-based, rat; conditions: for neurite extension in presence of neurotrophic factor: 50B11 cells
Experimental: One of the immortalized DRG neuronal cell lines (50B11) maintained self-replication capability over many cell divisions (>300) and was used in further analysis of neuronal properties. Differentiation and axonal elongation was induced in these cells by addition of forskolin (50 μM) into the culture medium. Within hours, more than 90% cells stopped dividing and extended long neurites. These cells were grown in 24-well plates on glass coverslips, fixed with 4% paraformaldehyde and immunostained for presence of neurofilament (SMI-32 antibody from Stemberger Monoclonals Inc., Lutherville, Md.), ßIII-tubulin (Promega, Madison Wis.), transient receptor potential channel, vanilloid subfamily member-1 (TRPV-1) (Abeam, Cambridge, Mass.), calcitonin gene related protein (CGRP) (source, city, state) or isolectin B-4 (IB4) (Vector Laboratories, Burlingame, Calif.) using standard methods (Keswani et al., supra). Slides were counterstained with 4′,6-Diamidino-2-phenylindole (DAPI) and mounted with Vectashield (Vector Laboratories, Burlingame, Calif.). Specificity of all primary and secondary antibodies was confirmed using appropriate positive and negative control cultures.

50B11 cells [4] = test: Real-time PCR of gene expression changes; assay type: cell-based, rat
Experimental: For analysis of changes in gene expression, 501311 cells were grown in media containing forskolin (50 μM), NGF (10 ng/ml), GDNF (10 ng/ml) or vehicle control for 24 hours. Total RNA was isolated using the TRIzol Reagent according to the manufacturer's recommendation. Two μg total RNA was reverse-transcribed using Ready-To-Go You-Prime First-Strand Bead (Amersham Biosciences, Piscataway, N.J.) according to manufacturer's protocols. Real-time PCR was carried out in a DNA Engine Opticon Continuous Fluorescence Detection System using DyNAmo SYBR Green Polymerase (MJ Research, Waltham, Mass.). All primers were designed according to the individual gene sequence in the GenBank/EMBL nucleotide sequence database (primer sequences are available upon request). The binding positions of all primers were chosen to produce amplicons of 150 to 200 base pairs and to achieve maximum efficiency and specificity. All primer sequences were checked for specificity by a BLAST search in the GenBank/EMBL nucleotide sequence database. The primers were synthesized by Integrated DNA Technologies, Inc. (Coralville, Iowa). […] The expression levels of individual genes before and after treatment were calculated using the comparative CT method.

T1 sequence (O35433 whole entry): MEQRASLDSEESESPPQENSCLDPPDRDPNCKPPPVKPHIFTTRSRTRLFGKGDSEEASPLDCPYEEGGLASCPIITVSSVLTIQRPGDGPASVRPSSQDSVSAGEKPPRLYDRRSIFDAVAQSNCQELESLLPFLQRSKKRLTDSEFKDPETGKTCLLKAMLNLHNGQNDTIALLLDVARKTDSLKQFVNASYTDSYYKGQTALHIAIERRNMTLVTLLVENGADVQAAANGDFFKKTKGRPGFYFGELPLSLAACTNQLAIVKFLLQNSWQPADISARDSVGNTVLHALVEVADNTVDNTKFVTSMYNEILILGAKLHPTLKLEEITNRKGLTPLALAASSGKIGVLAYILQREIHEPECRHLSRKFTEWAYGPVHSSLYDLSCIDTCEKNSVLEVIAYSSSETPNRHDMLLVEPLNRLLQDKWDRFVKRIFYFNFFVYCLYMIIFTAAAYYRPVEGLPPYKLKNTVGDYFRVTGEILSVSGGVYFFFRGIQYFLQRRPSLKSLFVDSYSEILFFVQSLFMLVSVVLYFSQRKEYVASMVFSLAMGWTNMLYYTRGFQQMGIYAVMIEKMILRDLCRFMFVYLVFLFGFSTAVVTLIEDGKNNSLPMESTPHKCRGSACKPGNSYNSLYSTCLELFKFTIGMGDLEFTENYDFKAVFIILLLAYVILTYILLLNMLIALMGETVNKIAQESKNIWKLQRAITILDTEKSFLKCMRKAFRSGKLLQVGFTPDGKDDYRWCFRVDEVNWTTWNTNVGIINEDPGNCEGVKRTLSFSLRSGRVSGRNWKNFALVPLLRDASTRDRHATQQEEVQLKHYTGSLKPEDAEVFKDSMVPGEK

Molecule: CCC(C)(C)C(=O)C(=O)N1CCC[C@H]1C(=O)OCCCc1cccnc1 [GPI-1046]
- prevention of ddC neurotoxicity (ATP levels) (50B11 cells [1]; co-administration with ddC): preventable

Molecule: COc1cc(CNC(=O)CCCC/C=C/C(C)C)ccc1O [capsaicin]
- reduction in ATP levels (50B11 cells [1]; 10 μM capsaicin, differentiated 50B11 cells): about 50%
- intracellular calcium levels (TRPV-1; 50B11 cells, fura-2 F340/F380): rapid rise in intracellular calcium levels

Molecule: Oc1cc2c(cc1O)CN(C(=S)NCCc1ccc(Cl)cc1)CCC2 [capsazepin]
- prevention of capsaicin-induced neurotoxicity (ATP levels) (50B11 cells [1]; co-administration with capsaicin): preventable
- prevention of capsaicin-induced rise in intracellular calcium (TRPV-1; pretreatment of 50B11 cells before capsaicin): preventable

Molecule: Nc1ccn([C@H]2CC[C@@H](CO)O2)c(=O)n1 [ddC]
- toxicity by total neuritic lengths (50B11 cells [2]): validated this toxicity

Molecule: C=C[C@@]1(C)CC(=O)[C@]2(O)[C@@]3(C)[C@@H](O)CCC(C)(C)[C@@H]3[C@H](O)[C@H](OC(C)=O)[C@@]2(C)O1 [forskolin]
- cells that stopped dividing and extended long neurites (50B11 cells [3]; forskolin 50 μM in culture medium, within hours): more than 90%

Molecule: NGF: neurotrophic factor, nerve growth factor
- neurite extension in presence of neurotrophic factor (50B11 cells [3]): extended longer neurites
- Trk-A upregulation (50B11 cells [4]; forskolin plus NGF 10 ng/ml versus forskolin plus GDNF): more upregulated

B1: GDNF: neurotrophic factor acting on c-ret and GFRα-1 (protein, UniProt P39905 78-211, looked up)
Glial cell line-derived …: SPDKQMAVLPRRERNRQAAAANPENSRGKGRRGQRGKNRGCVLTAIHLNVTDLGLGYETKEELIFRYCSGSCDAAETTYDKILKNLSRNRRLVSDKVGQACCRPIAFDDDLSFLDDNLVYHILRKHSAKRCGCI
- neurite extension in presence of neurotrophic factor (50B11 cells [3]): extended longer neurites
- GFRα-1 upregulation (50B11 cells [4]; forskolin plus GDNF 10 ng/ml versus forskolin plus NGF): more upregulated
